AC50 data for 15 compounds are collected here from patent US20250346600A1, “TRICYCLIC DERIVATIVES AND RELATED USES” (MOMA Therapeutics, Inc., priority 2023, published 2025).

Experiment [1] relates to HCT116 cells. Briefly: HCT116 (MSI) 7 day viability, CellTiter Glo. The following applies: Homo sapiens, HCT-116, 168 h, 7 days, read-out: HCT116 (MSI) Viability 7 Day Abs AC50. The format is cell-based. The procedure, abridged: (§1)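 HCT116 seeded at 50 cells/well and HT29 at 500 cells/well onto compound plates (10-point 3-fold dilutions from 10 mM DMSO stock), incubated 7 days at 37 °C, 5% CO2.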
A general note: ATP-based viability assays read luminescence as a measure of living cells.

For experiment [2], the system named is HT29 cells. The experiment can be described thus: HT29 (MSS) 7 day viability, CellTiter Glo. The following applies: Homo sapiens, HT-29, 168 h, 7 days, read-out: HT29 (MSS) Viability 7 Day CTGAbs AC50. The format is cell-based. Put shortly:
as §1

For experiment [3], the target named is T1, Full length WRN protein (aa 2-1432) (Homo sapiens (Human), UniProt Q14191). The experiment can be described thus: WRN ATPase ADP-Glo biochemical assay, Assay Format B (100 μM ATP). The following applies: 0.25 nM WRN, 100 nM C6.18 ssDNA, 60 min preincubation, read-out: ATPase ADPGlo AC50 (uM)- Assay Format B. A general note: ADP-Glo turns the ADP formed in a reaction into a luminescent signal.
T1 sequence (Q14191 2-1432): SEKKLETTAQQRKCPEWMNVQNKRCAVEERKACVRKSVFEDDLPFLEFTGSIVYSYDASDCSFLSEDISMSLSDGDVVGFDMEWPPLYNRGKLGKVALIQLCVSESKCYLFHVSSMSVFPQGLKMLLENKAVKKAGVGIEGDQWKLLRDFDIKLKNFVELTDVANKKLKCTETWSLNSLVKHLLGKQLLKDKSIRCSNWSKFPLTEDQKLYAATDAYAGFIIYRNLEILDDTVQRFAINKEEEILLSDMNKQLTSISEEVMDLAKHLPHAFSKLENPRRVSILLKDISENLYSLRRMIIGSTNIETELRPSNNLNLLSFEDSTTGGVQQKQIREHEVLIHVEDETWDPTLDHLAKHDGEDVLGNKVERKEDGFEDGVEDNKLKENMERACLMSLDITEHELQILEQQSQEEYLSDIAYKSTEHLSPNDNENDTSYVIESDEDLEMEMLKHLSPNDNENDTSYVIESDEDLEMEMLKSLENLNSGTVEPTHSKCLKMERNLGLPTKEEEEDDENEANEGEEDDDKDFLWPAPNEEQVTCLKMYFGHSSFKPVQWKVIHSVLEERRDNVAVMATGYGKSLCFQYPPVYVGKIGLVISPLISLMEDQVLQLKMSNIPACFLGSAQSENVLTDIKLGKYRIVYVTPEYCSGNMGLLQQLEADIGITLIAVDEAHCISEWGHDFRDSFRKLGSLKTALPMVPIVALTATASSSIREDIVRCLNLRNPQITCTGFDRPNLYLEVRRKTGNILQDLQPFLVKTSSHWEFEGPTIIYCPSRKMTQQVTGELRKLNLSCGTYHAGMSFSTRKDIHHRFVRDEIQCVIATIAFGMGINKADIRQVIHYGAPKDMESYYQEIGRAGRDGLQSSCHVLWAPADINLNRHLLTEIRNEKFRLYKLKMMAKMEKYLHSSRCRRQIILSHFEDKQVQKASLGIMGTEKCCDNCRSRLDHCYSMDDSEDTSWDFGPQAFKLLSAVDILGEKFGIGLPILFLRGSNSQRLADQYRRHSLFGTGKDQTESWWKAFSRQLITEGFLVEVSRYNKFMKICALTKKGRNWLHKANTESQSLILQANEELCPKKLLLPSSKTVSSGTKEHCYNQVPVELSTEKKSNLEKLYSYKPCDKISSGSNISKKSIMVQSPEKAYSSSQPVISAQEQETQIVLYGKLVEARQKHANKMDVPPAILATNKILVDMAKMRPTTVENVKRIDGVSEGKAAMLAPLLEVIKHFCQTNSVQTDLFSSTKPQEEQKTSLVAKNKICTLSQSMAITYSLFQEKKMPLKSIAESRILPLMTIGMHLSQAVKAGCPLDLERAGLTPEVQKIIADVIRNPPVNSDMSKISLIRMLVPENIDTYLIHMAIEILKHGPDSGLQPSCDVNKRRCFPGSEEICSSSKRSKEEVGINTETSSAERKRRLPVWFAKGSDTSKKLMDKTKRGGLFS

Experiment [4] addresses T1, Full length WRN protein (aa 2-1432). Briefly: WRN ATPase ADP-Glo biochemical assay, Assay Format A (10 μM ATP). As to conditions: 0.25 nM WRN, 100 nM C6.18 ssDNA, 30 min preincubation, read-out: ATPase ADPGlo AC50 (uM)- Assay Format A. From the text: Full length Werner helicase construct (Uniprot: Q14191) with an N-terminal FLAG-AVI-TEV tag was expressed using the Sf9 cell/baculovirus expression system. The harvested cell pellet was resuspended and lysed in a glass homogenizer. After insoluble material was removed by centrifugation, the helicase protein was first purified with FLAG affinity resin and then further purified through a size-exclusion chromatography column. Peak fractions containing the purified protein were concentrated, split into aliquots and frozen in liquid nitrogen to be thawed before use. Biochemical Assay Description (ATPase activity)-Assay Format A WRN activity was measured using an ATPase assay. Full length WRN protein (aa 2-1432) (production described separately) was used for the biochemical activity assays. The 39-mer ssDNA “C6.18” [NT] was purchased from IDT and used as a substrate. Quantification of ATP hydrolysis was evaluated using the ADP-Glo assay kit (Promega, Madison, WI). An enzyme titration time-course was performed to determine the optimal assay conditions. […] To evaluate the inhibitory effects of the compounds, 11-point 3-fold serial dilutions were prepared in DMSO. 50 nL of each concentration in duplicate was preincubated for 30 minutes in a 384-well microplate (Greiner #784075) with 5 μL of 0.5 nM WRN in assay buffer. The reaction was initiated by adding 5 μL of 200 nM C6.18 DNA with 20 μM ATP and was allowed to proceed for 30 minutes at room temperature. The reaction was stopped with 10 μL ADP-Glo reagent for 1 hour to remove unreacted ATP. Lastly, 20 μL ATP detection reagent was added and incubated for 1 hour to generate the luminescence signal. Control wells included “high controls” with no inhibition (DMSO, no compound) and “low controls” with maximum inhibition (no WRN). Luminescence was recorded on a PHERAstar (BMG Labtech, Ortenberg, Germany). Data was fit using the “Smart Fit” method within the Genedata Screener Software (Basel, Switzerland) to obtain IC50 values using four-parameter fits. Reported IC50s are the geometric means of at least two independent trials.

Molecules are shown by their SMILES. Some results are limits rather than exact numbers.

Turning to `C=CC(=O)N1CCc2nn(-c3ccc(C(C)C)cc3)c3c2C(C1)N(C(=O)c1ccc(Br)c2[nH]c(N)nc12)CC3` (stereo not drawn) [Compound 8, 1-(5-(2-amino-7-bromo-1H-benzo[d]imidazole-4-carbonyl)-2-(4-isopropylphenyl)-2,3,4,5,5a,6,8,9-octahydro-7H-1,2,5,7-tetraazabenzo[cd]azulen-7-yl)prop-2-en-1-one], the half-maximal activity concentration (AC50) (usually the concentration at which the activity in the assay is half-maximal) in experiment [1] was 1 to 100 nM; in experiment [2], greater than 3000 nM; in experiment [3] it was 0.005 to 0.015 µM; in experiment [4], less than 0.0015 µM.

Turning to `C=CC(=O)N1CCc2nn(-c3ccc(C(C)C)cc3)c3c2C(C1)N(C(=O)c1ccc(Br)c2[nH]c(N4CCC4)nc12)CC3` (stereo not drawn) [Compound 9, 1-(5-(2-(azetidin-1-yl)-7-bromo-1H-benzo[d]imidazole-4-carbonyl)-2-(4-isopropylphenyl)-2,3,4,5,5a,6,8,9-octahydro-7H-1,2,5,7-tetraazabenzo[cd]azulen-7-yl)prop-2-en-1-one], the concentration at half-maximal activity (AC50) in experiment [1] was 1 to 100 nM; in experiment [2], greater than 3000 nM; in experiment [3] it was 0.015 to 0.055 µM; in experiment [4], 0.0015 to 0.005 µM.

With `C=CC(=O)N1CCc2nn(-c3ccc(C(C)C)cc3)c3c2C(C1)N(C(=O)c1ncc(Br)c2[nH]cnc12)CC3` (stereo not drawn) [Compound 10, 1-(5-(7-bromo-1H-imidazo[4,5-c]pyridine-4-carbonyl)-2-(4-isopropylphenyl)-2,3,4,5,5a,6,8,9-octahydro-7H-1,2,5,7-tetraazabenzo[cd]azulen-7-yl)prop-2-en-1-one], the AC50 is 1 to 100 nM in experiment [1], greater than 3000 nM in experiment [2], 0.015 to 0.055 µM in experiment [3] and less than 0.0015 µM in experiment [4].

With `C=CC(=O)N1CCc2nn(-c3ccc(C(C)C)cc3)c3c2C(C1)N(C(=O)c1cnc(C(F)(F)F)c(OC)c1)CC3` (stereo not drawn) [Compound 12, 1-(2-(4-isopropylphenyl)-5-(5-methoxy-6-(trifluoromethyl)nicotinoyl)-2,3,4,5,5a,6,8,9-octahydro-7H-1,2,5,7-tetraazabenzo[cd]azulen-7-yl)prop-2-en-1-one], the concentration at half-maximal activity (AC50) is 1 to 100 nM in experiment [1], greater than 3000 nM in experiment [2], 0.015 to 0.055 µM in experiment [3] and less than 0.0015 µM in experiment [4].

Regarding `C=CC(=O)N1CCc2nn(-c3ccc(C(C)C)cc3)c3c2C(C1)N(C(=O)c1ccc(C(F)(F)F)nc1)CC3` (stereo not drawn) [Compound 13, 1-(2-(4-isopropylphenyl)-5-(6-(trifluoromethyl)nicotinoyl)-2,3,4,5,5a,6,8,9-octahydro-7H-1,2,5,7-tetraazabenzo[cd]azulen-7-yl)prop-2-en-1-one], the AC50 was 100 to 250 nM in experiment [1], greater than 3000 nM in experiment [2], 0.015 to 0.055 µM in experiment [3] and 0.0015 to 0.005 µM in experiment [4].

For `C=CC(=O)N1CCc2nn(-c3ccc(C(C)C)cc3)c3c2C(C1)N(C(=O)c1cnc(C(F)(F)F)c(O)c1)CC3` (stereo not drawn) [Compound 14, 1-(5-(5-hydroxy-6-(trifluoromethyl)nicotinoyl)-2-(4-isopropylphenyl)-2,3,4,5,5a,6,8,9-octahydro-7H-1,2,5,7-tetraazabenzo[cd]azulen-7-yl)prop-2-en-1-one], the AC50 in experiment [1] was 1 to 100 nM; in experiment [2], greater than 3000 nM; in experiment [3], 0.015 to 0.055 µM; in experiment [4], 0.0015 to 0.005 µM.

In the case of `CC(C)c1ccc(-n2nc3c4c2CCN(C(=O)c2ccc(Br)c5[nH]cnc25)C4CN(C(=O)/C=C/CN(C)C)CC3)cc1` (stereo not drawn) [Compound 15, 1-(5-(7-bromo-1H-benzo[d]imidazole-4-carbonyl)-2-(4-isopropylphenyl)-2,3,4,5,5a,6,8,9-octahydro-7H-1,2,5,7-tetraazabenzo[cd]azulen-7-yl)-4-(dimethylamino)but-2-en-1-one], the AC50 is 250 to 500 nM in experiment [1], greater than 3000 nM in experiment [2], greater than 0.055 µM in experiment [3] and 0.015 to 0.055 µM in experiment [4].

On to `C=C(F)C(=O)N1CCc2nn(-c3ccc(C(C)C)cc3)c3c2C(C1)N(C(=O)c1ccc(Br)c2[nH]cnc12)CC3` (stereo not drawn) [Compound 17, 1-(5-(7-bromo-1H-benzo[d]imidazole-4-carbonyl)-2-(4-isopropylphenyl)-2,3,4,5,5a,6,8,9-octahydro-7H-1,2,5,7-tetraazabenzo[cd]azulen-7-yl)-2-fluoroprop-2-en-1-one], for which the concentration at half-maximal activity (AC50) in experiment [1] was greater than 1000 nM; in experiment [2] it was greater than 3000 nM; in experiment [3], greater than 0.055 µM; in experiment [4], 0.015 to 0.055 µM.

Regarding `C=CC(=O)N1CCc2nn(-c3ccc(C4CC4)cc3)c3c2C(C1)N(C(=O)c1ccc(C#N)c2[nH]cnc12)CC3` (stereo not drawn) [Compound 18, 4-(7-acryloyl-2-(4-cyclopropylphenyl)-3,4,5,5a,6,7,8,9-octahydro-2H-1,2,5,7-tetraazabenzo[cd]azulene-5-carbonyl)-1H-benzo[d]imidazole-7-carbonitrile], the AC50 in experiment [1] is 1 to 100 nM; in experiment [2], greater than 3000 nM; in experiment [3], 0.015 to 0.055 µM; in experiment [4] it was 0.0015 to 0.005 µM.

For `C=CC(=O)N1CCc2nn(-c3ccc(C45CC(C4)C5)cc3)c3c2C(C1)N(C(=O)c1ccc(C(F)(F)F)c2[nH]ncc12)CC3` (stereo not drawn) [Compound 19, 1-(2-(4-(bicyclo[1.1.1]pentan-1-yl)phenyl)-5-(7-(trifluoromethyl)-1H-indazole-4-carbonyl)-2,3,4,5,5a,6,8,9-octahydro-7H-1,2,5,7-tetraazabenzo[cd]azulen-7-yl)prop-2-en-1-one], the AC50 in experiment [1] is 1 to 100 nM; in experiment [2] it was greater than 3000 nM; in experiment [3], 0.015 to 0.055 µM; in experiment [4], 0.0015 to 0.005 µM.

For `C=CC(=O)N1CCc2nn(-c3ccc(C(C)C)cc3O)c3c2C(C1)N(C(=O)c1ccc(Br)c2[nH]cnc12)CC3` (stereo not drawn) [Compound 20, 1-(5-(7-bromo-1H-benzo[d]imidazole-4-carbonyl)-2-(2-hydroxy-4-isopropylphenyl)-2,3,4,5,5a,6,8,9-octahydro-7H-1,2,5,7-tetraazabenzo[cd]azulen-7-yl)prop-2-en-1-one], the AC50 in experiment [1] is 1 to 100 nM; in experiment [2], greater than 3000 nM; in experiment [3] it was 0.005 to 0.015 µM; in experiment [4] it was less than 0.0015 µM.

Consider `C=CC(=O)N1CCc2nn(-c3ccc(C(C)C)cc3O)c3c2C(C1)N(C(=O)c1cnc(C(F)(F)F)c(O)c1)CC3` (stereo not drawn) [Compound 21, 1-(2-(2-hydroxy-4-isopropylphenyl)-5-(5-hydroxy-6-(trifluoromethyl)nicotinoyl)-2,3,4,5,5a,6,8,9-octahydro-7H-1,2,5,7-tetraazabenzo[cd]azulen-7-yl)prop-2-en-1-one], for which the AC50 in experiment [1] is 1 to 100 nM; in experiment [2], greater than 3000 nM; in experiment [3] it was 0.005 to 0.015 µM; in experiment [4] it was less than 0.0015 µM.

Turning to `C=CC(=O)N1CCc2nn(-c3ccc(C(C)C)cc3O)c3c2C(C1)N(C(=O)c1cnc(Br)c2[nH]cnc12)CC3` (stereo not drawn) [Compound 22, 1-(5-(4-bromo-3H-imidazo[4,5-c]pyridine-7-carbonyl)-2-(2-hydroxy-4-isopropylphenyl)-2,3,4,5,5a,6,8,9-octahydro-7H-1,2,5,7-tetraazabenzo[cd]azulen-7-yl)prop-2-en-1-one], the AC50 is 250 to 500 nM in experiment [1], greater than 3000 nM in experiment [2], 0.015 to 0.055 µM in experiment [3] and 0.0015 to 0.005 µM in experiment [4].

Consider `C=CC(=O)N1CCc2nn(-c3ccc(C4CCC4)cc3O)c3c2C(C1)N(C(=O)c1ccc(Br)c2[nH]cnc12)CC3` (stereo not drawn) [Compound 23, 1-(5-(7-bromo-1H-benzo[d]imidazole-4-carbonyl)-2-(4-cyclobutyl-2-hydroxyphenyl)-2,3,4,5,5a,6,8,9-octahydro-7H-1,2,5,7-tetraazabenzo[cd]azulen-7-yl)prop-2-en-1-one], for which the AC50 was 1 to 100 nM in experiment [1], greater than 3000 nM in experiment [2], 0.0015 to 0.005 µM in experiment [3] and less than 0.0015 µM in experiment [4].

Turning to `C=CC(=O)N1CCc2nn(-c3ccc(C4CCC4)cc3O)c3c2C(C1)N(C(=O)c1ccc2c(Br)n[nH]c2c1)CC3` (stereo not drawn) [Compound 24, 1-(5-(3-bromo-1H-indazole-6-carbonyl)-2-(4-cyclobutyl-2-hydroxyphenyl)-2,3,4,5,5a,6,8,9-octahydro-7H-1,2,5,7-tetraazabenzo[cd]azulen-7-yl)prop-2-en-1-one], the half-maximal activity concentration (AC50) in experiment [1] is 1 to 100 nM; in experiment [2] it was greater than 3000 nM; in experiment [3] it was 0.005 to 0.015 µM; in experiment [4], less than 0.0015 µM.
